From patent publication US9402848B2, “Method for treating pain syndrome and other disorders” (VM Therapeutics LLC, priority 2008, dated 2016)

Legend:
[1] = system: Carrageenan-induced pain in rat animal model of hyperalgesia; assay: Carrageenan-induced pain in rat animal model of hyperalgesia; assay type: in vivo; conditions: FIG. 2 and FIG. 3
[2] = system: Formalin induced pain in rat animal models of hyperalgesia; assay: Rat Formalin Paw Test; assay type: in vivo; conditions: FIG. 1
Experimental: Rat Formalin Paw Test (in Vivo Assay): Compounds were assessed for their ability to inhibit the behavioral response evoked by an injection of formalin (50 μl of 5% formalin). A metal band was affixed to the left hind paw of male Holtzman rats (225-250 g, Harlan Industries, Indianapolis Ind.) and each rat was conditioned to the band for 60 min within a plastic cylinder (15 cm diameter). Rats were dosed with either vehicle, positive control compound or a test compound either before (local) or after (systemic) formalin challenge. For local administration, compounds were prepared in either a 1:1.5 vehicle of saline (in mL) and (D)- or (L)-Tartaric acid (in mg), or a 1:1:6 vehicle of DMA (N,N-Dimethylacetamide), Tween 80 and saline, and injected […] into the dorsal surface of the right hind paw of the rat 60 min prior to formalin. The number of flinches was counted continuously for 60 min using an automated nociception analyzer (UCSD Anesthesiology Research, San Diego, Calif.). Statistical significance was determined by comparing the total flinches detected in the early (0-10 min, Phase I) and late (11-60 min) phase with an unpaired t-test. […]

With `Cc1nc2ccccn2c(=O)c1CCN1CCC(C(=O)c2ccc(F)cc2)CC1` [Compound 10, 3-(2-{4-[(4-fluorophenyl)carbonyl]piperidin-1-yl}ethyl)-2-methyl-4H-pyrido[1,2-a]pyrimidin-4-one] the “reduction of Carrageenan-induced pain” value [1] was “reduction of Carrageenan-induced pain” and the “reduction of Formalin induced pain” value [2] was “reduction of Formalin induced pain”.
